The source made the active and inactive calls.

Test [1] deals with T1, Apoptotic protease-activating factor 1 (Homo sapiens, UniProt O14727).
T1 sequence (O14727 whole entry): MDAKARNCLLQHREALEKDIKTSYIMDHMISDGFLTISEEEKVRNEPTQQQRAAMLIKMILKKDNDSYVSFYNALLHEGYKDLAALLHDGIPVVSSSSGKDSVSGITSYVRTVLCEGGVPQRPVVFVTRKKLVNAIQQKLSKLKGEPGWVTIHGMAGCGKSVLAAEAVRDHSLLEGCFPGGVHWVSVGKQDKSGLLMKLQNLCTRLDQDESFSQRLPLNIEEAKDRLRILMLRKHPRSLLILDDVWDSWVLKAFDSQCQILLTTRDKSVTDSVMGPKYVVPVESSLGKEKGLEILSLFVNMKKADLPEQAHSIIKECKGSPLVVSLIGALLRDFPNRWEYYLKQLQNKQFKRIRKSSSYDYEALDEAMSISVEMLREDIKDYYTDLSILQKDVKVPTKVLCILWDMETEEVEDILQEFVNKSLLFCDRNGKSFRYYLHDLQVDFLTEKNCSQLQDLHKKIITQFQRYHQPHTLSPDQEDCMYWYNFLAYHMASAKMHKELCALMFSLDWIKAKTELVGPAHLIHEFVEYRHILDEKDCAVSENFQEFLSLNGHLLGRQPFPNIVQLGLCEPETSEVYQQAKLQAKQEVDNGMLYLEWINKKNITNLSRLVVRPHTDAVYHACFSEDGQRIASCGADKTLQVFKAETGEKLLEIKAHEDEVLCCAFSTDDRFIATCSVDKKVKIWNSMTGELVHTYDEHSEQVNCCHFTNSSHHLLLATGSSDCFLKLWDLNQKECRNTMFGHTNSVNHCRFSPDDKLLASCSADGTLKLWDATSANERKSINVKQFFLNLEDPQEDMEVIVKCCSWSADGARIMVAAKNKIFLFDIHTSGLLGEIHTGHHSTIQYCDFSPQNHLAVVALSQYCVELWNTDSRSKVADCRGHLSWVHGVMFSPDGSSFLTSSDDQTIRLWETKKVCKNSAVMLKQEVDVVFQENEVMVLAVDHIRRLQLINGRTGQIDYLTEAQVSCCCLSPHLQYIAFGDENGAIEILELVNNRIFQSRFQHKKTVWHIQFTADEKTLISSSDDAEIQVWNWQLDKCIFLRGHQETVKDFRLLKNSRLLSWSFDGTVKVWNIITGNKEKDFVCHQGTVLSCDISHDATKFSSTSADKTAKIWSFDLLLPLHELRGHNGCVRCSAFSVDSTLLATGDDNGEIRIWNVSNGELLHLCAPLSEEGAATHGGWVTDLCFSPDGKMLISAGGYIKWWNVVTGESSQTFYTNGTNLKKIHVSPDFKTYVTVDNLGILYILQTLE
It is filed as functional.

A further test has as its target Phospholipase A2 (Homo sapiens, UniProt P04054). It is filed as functional.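 Note: confirmatory dose-response counterscreen on phospholipase A2, testing hits that came from an ultra-high-throughput screen for ATG4B inhibitors.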
Test [2] addresses Dual specificity tyrosine-phosphorylation-regulated kinase 1A (Rattus norvegicus, UniProt Q63470). It is filed as biochemical, Homo sapiens.
In a further test the target is T2, Cysteine protease ATG4B (Homo sapiens, UniProt Q9Y4P1).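 Note: Fluorescence-based dose-response confirmation assay measuring inhibition of ATG4B activity.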
T2 sequence (Q9Y4P1 whole entry): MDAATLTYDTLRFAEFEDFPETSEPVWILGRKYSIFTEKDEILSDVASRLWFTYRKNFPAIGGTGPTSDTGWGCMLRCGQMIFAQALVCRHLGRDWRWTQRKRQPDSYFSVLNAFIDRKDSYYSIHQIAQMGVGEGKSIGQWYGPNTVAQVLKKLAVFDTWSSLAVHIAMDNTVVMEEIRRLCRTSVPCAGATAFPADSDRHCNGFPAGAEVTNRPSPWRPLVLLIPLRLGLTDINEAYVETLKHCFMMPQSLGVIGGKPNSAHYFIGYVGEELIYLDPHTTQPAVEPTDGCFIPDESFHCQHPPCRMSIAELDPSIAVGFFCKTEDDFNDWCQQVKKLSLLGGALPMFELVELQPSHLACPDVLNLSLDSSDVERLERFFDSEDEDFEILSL
It is filed as functional.

In test [3] the target is T3, Histone-lysine N-methyltransferase NSD2 (Homo sapiens, UniProt O96028).
T3 sequence (O96028 whole entry): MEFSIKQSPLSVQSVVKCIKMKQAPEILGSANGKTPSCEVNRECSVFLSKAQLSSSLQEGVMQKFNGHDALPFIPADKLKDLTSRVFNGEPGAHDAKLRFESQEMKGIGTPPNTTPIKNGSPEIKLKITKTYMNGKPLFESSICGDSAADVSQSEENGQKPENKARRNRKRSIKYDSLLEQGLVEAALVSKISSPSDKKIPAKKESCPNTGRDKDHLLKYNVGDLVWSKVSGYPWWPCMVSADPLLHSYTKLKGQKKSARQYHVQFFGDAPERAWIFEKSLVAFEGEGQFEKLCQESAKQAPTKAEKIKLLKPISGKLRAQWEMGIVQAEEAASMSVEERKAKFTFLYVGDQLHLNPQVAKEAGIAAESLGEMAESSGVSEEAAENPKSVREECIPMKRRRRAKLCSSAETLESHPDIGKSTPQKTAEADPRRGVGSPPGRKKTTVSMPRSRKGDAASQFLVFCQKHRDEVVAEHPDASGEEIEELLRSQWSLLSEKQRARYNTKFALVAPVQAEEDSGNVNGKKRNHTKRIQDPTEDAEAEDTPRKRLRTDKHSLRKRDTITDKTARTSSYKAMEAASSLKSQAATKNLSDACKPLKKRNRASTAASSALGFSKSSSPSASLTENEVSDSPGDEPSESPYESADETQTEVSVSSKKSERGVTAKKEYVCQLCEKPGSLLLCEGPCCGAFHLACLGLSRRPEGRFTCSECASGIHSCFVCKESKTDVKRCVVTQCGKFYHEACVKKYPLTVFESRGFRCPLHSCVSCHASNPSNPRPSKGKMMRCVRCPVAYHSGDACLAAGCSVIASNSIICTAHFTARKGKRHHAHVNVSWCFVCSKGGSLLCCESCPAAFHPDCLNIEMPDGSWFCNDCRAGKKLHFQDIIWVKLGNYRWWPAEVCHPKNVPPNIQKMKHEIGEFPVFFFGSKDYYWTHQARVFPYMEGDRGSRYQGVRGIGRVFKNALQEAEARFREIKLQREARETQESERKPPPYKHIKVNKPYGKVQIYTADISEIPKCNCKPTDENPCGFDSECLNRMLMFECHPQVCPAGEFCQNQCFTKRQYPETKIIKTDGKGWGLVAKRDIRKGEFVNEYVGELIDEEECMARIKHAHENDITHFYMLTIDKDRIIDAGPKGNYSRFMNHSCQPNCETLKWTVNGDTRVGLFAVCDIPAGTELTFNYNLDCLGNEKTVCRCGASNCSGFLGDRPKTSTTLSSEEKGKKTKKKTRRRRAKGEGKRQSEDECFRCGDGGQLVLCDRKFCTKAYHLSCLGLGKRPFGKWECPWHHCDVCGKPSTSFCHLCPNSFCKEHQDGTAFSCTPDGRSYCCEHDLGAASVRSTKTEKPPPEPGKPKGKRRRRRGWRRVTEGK
It is filed as biochemical.

Phospholipase A2, sequence (P04054 whole entry): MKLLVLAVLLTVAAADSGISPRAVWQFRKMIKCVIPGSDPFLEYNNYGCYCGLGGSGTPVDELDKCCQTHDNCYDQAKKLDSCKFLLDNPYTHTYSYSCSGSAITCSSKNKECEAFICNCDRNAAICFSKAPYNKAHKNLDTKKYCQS

As a reminder, the IC50 is the concentration that gives 50% inhibition. Take `O=C1c2ccccc2C(=O)c2[nH]c(O)nc21`: the IC50 in test [1] was 6.79 µM (active).
A word on the AC50: it is the midpoint of the concentration-response curve, whichever way the signal moves. `N#Cc1c(N2CCCC2)nc(N)c2c(N)nc(N3CCCC3)cc12`: the IC50 was 0.181 µM (active) in test [1], 11.7 µM (active) at Phospholipase A2 and 1.64 µM (active) at Cysteine protease ATG4B. Also, the AC50 in test [2] was 0.287 µM (active).
In the case of `COC(=O)c1cc(C)nc2c1C(=O)C(=O)C=C2N1CCOCC1`, the figures for the concentration for half-maximal inhibition (IC50) (in test [1]; on Phospholipase A2; on Cysteine protease ATG4B) were 1.01 µM (active), 65.6 µM (inactive) and 4.45 µM (active), respectively. For the same compound, the AC50 in test [2] was 0.983 µM (active); in test [3], 0.407 µM (active).
Turning to `NS(=O)(=O)c1cc(C(=O)NC2CCSc3ccccc32)ccc1Cl` (centres undefined), the IC50 at Phospholipase A2 was 24.1 µM (inactive); at Cysteine protease ATG4B it was 6.64 µM (active).
On to `CCOC(=O)C1=C(C)OC2(O)c3ccccc3C(=O)C12O` (centres undefined), for which, in test [1], the IC50 is 2.55 µM (active). In test [3], the AC50 was 8.9 µM (active).

The record behind these values is ChEMBL document CHEMBL1201862, “PubChem BioAssay data set” (2004).
